# Results published in patent US20050288279A1, “Phenothiazine derivatives and their method of use” (priority 2004, published 2005).
# Entries after “also recorded” stand apart in the source; their conditions may differ. Where two headings read alike, the source gives them in different places.
# Columns and labels:
# [1] = WHO; cited from earlier work
# rats [2] = conditions: cited from earlier work
# humans = conditions: cited from earlier work
# guinea pigs = conditions: p.o. (Schwetz et al. 1973); cited from earlier work
# rats [3] = conditions: calculated from the literature, cited from earlier work
# rats [4] = conditions: adult cycling rats, 10 μg/kg (Li et al. 1995a); cited from earlier work
# hamsters = hamsters (Eisler 1986); cited from earlier work
# [5] = human data; cited from earlier work
# Sprague-Dawley rats = experiment: Acute i.v. toxicity of TCPT in rats; type: in vivo, rat
# Experimental: (§1) Animals dosed with 10 mg/kg became unconscious for 30 min, whereas in the 5 mg/kg dose group, the rats lost consciousness for 3 min only, likely representing the effects of acetone in this case.
# (§2) Due to the unexpectedly rapid onset of death, no more detailed observations, e.g. on the heart rate, could be made.
# [6] = Acute i.v. toxicity of TCPT in rats; type: in vivo, rat; conditions: female, Sprague-Dawley, rat, in vivo, iv; rats, i.v.; read-out: dose for the acute lethal toxicity (referred to as i.v. LD50)
# Experimental: as §1, §2
# [7] = Half-lives after intravenous dosage in guinea pigs; conditions: guinea pig, in vivo, 10 mg/kg, two guinea pigs, i.v. 10 mg/kg
# Description: (§3) Studies on a limited number of animal have been conducted to determine the approximate half-life of TCPT.
# [8] = Half-lives after intravenous dosage in rats; conditions: rat, in vivo
# Description: as §3
# [9] = Solubility and stability observations; type: physicochemical
# CYP 1A1 = experiment: In vitro ethoxyresorufin-O-deethylase (EROD) study in rat hepatoma cells; type: cell-based
# Experimental: The induction of CYP 1A1 has been quantitatively measured in an cell-line study. The choice of EROD as an in vitro study was made based on its established procedure and speed. […] Its metabolic context is both, a strength and a weakness of the EROD assay. The greatest advantage of cell-based assays is the detection of the actual gene expression as compared to the study of interaction with DREs (Seidel et al. 2000).
# The EROD-specific activity of TCPT declined over time, with its maximum at 24 h out of measurements after 24, 48 and 72 h. This indicates a comparatively rapid metabilization of TCPT by rat hepatoma cells.
# [10] = system: Dunkin-Hartley guinea pigs; experiment: Effects on ovulation in guinea pigs; type: in vivo, guinea pig
# Description: In the present invention, guinea pigs were chosen for this study for two reasons. First, they represent the species that is the most sensitive to TCDD. […] Dosing with gelatin capsules can be performed in this species without anesthesia, which is not possible in rats. This is an important factor, since anesthetics generally influence ovulation.
# The guinea pigs were followed for at least two regular consecutive cycles (about 16 days each) before commencing with dosing and also after the administration of TCPT was terminated. Their cycles were tracked by observation of vaginal opening and vaginal smears. The day of ovulation, day 1, was defined as a leucocytic smear following a cornified smear. The animals were dosed for 9 consecutive days starting on day 9 of a highly regular normal cycle. This way, the dosing period overlapped with the relevant time-span for ovulation and regulation of the cycle length (Terranova & Greenwald 1981). The animals received dose rates of 2.5, 5, 10 and 20 mg/kg TCPT per day. One animal was pair-fed to an animal dosed with 20 mg/kg/day TCPT.
# rats [11] = experiment: Observed interaction with anesthetics (pentobarbital)
# [12] = Acute toxicity, daily p.o. doses of TCPT in guinea pigs; conditions: female, Dunkin-Hartley, guinea pig, in vivo, po
# Experimental: (§4) In this example, dose-range finding studies were performed with a small number of animals to accommodate the limited availability of TCPT.
# (§5) Six adult male Dunkin-Hartley guinea pigs were given daily p.o. doses of TCPT. Due to its insolubility, TCPT was administered as a solid in size 9 gelatin capsules and dosing devices purchased from Torpack, Inc. (Fairfield, N.J.).
# (§6) The experimental design of daily dosing accounted for the short half-life known from clinically used phenothiazines and the results of prior unpublished studies with 1,2,3,7,8,9-hexachlorophenothiazine.
# (§7) This example first looked at daily p.o. administration to guinea pigs. Eleven guinea pigs received multiple doses of TCPT, with dosages ranging from 2.5 to 100 mg/kg/day.
# [13] = system: Dunkin-Hartley guinea pigs; experiment: as above
# Experimental: as §4, §5, §6, §7
# [14] = system: Dunkin-Hartley guinea pigs; experiment: Altering the regulation level for bodyweight in guinea pigs; type: in vivo, guinea pig
# Experimental: In the present invention, guinea pigs were dosed for 9 consecutive days with 2.5, 5, 10 and 20 mg/kg/day TCPT, respectively. The observations presented here were made during another study which was not designed for comparative body weight analysis. […] In contrast to studies on TCDD, weight gain resumed 1-2 days after cessation, probably due to TCPT's shorter half-life and therefore more rapid elimination.
# guinea pig = experiment: Single intravenous administration of TCPT in guinea pigs; type: in vivo; conditions: single i.v. 10 mg/kg in acetone (0.5 ml/kg)
# Experimental: During ovulation studies (see Example 4 below), an adult female was lost after having been dosed with 10 mg/kg/day for 9 consecutive days; the animal died on day 13.
# In this example, the toxicity of TCPT was compared between each species. […] On the other hand, a female rat receiving i.v. 10 mg/kg was sedated within 30 minutes.
# [15] = 20 mg/kg/day, 9 consecutive days
# [16] = peroral solid TCPT 30 min prior to pentobarbital (55 mg/kg)
compound,measurement,setting,value
"Clc1cc2c(cc1Cl)Oc1c(cc(Cl)c(Cl)c1Cl)O2 [PeCDD, 1,2,3,7,8-pentachlorodibenzo-p-dioxin]",TEF-value,[1],1
"Clc1cc2c(cc1Cl)Oc1cc(Cl)c(Cl)cc1O2 [TCDD, 2,3,7,8-Tetrachlorodibenzo-p-dioxin]",LD50,rats [2]; Han Wistar rats (Pohjanvirta et al.),> 3000 µg/kg
same,LD50,rats [2]; Long-Evans rats (Pohjanvirta et al.),10 µg/kg
same,inter-strain difference in LD50,rats [2]; between Long-Evans and Han Wistar rats,~300 fold
same,LD50,rats [2]; female rats (Schwetz et al. 1973),45.0 µg/kg
same,LD50,rats [2]; male rats (Schwetz et al. 1973),22.0 µg/kg
same,i.v. LD50,"rats [2]; rats, i.v. (Schwetz et al. 1973)",25 µg/kg
same,concentration below which most individuals do not show signs,humans; humans (Williams & Wilkins 1992),"11,000 ppt"
same,"dose corresponding to 11,000 ppt",humans; humans (Young 1984),about 100 μg/kg
same,concentration at which chloracne symptoms may occur,"humans; susceptible individuals, based on serum lipid content",800 ppt
same,LD50,guinea pigs,2.1 µg/kg
same,body burden below which weight gain resumed,rats [3]; 3 weeks after dosing,Below 5 μg/kg
same,body burden at which feed intake started rising again,"rats [3]; after non-lethal dose of 15 μg/kg, after 11 days",6.6 to 8 µg/kg
same,effect on cycle and ovulation,rats [4],prolonged diestrus stage
same,LD50,hamsters,1157−5051 μg/kg
same,TEF-value,[1],1
same,absorption,[5],> 86%
"Clc1cc2c(cc1Cl)Sc1cc(Cl)c(Cl)cc1N2 [TCPT, 2,3,7,8-tetrachlorophenothiazine]",sedation,"Sprague-Dawley rats; female rat, i.v. 10 mg/kg",≤ 30 min
same,duration of lost consciousness,"Sprague-Dawley rats; female rats, i.v. 5 mg/kg in acetone (1 ml/kg), likely effect of acetone",3 min
same,duration of unconsciousness,"Sprague-Dawley rats; female rats, i.v. 10 mg/kg in acetone (1 ml/kg)",30 min
same,lethality,"Sprague-Dawley rats; female rats, i.v. 30 mg/kg in acetone (1 ml/kg), 30 mg/kg",died within five seconds; also recorded: dropped dead within five seconds; also recorded: lethal dose
same,i.v. LD50 of TCPT relative to reported i.v. LD50 of TCDD,Sprague-Dawley rats; rats,"roughly 1,000 times"
same,LD50,[6],10 to 30 mg/kg
same,half-life,"[7]; read-out: half-life, distribution phase (converted)",25.2 min
same,half-life,"[7]; read-out: half-life, elimination phase (converted)",163 min
same,half-life,"[8]; 5 mg/kg, two rats, i.v. 5 mg/kg, read-out: half-life, distribution phase (converted)",49.2 min
same,half-life,"[8]; 5 mg/kg, two rats, i.v. 5 mg/kg, read-out: half-life, elimination phase (converted)",325 min
same,half-life,"[8]; 10 mg/kg, one rat, i.v. 10 mg/kg, read-out: half-life, distribution phase (converted)",28.2 min
same,half-life,"[8]; 10 mg/kg, one rat, i.v. 10 mg/kg, read-out: half-life, elimination phase (converted)",135 min
same,stability in acetone,[9],decomposes in acetone
same,stability in acetone,[9]; listed as KWF3,degraded when kept in acetone for longer periods of time
same,solubility,[9]; any solvent,insolubility; also recorded: low solubility
same,potency compared with TCDD (acute toxicity in animals and in vitro EROD-specific activity),CYP 1A1,three orders of magnitude less potent
same,time of maximum EROD-specific activity,"CYP 1A1; measurements after 24, 48 and 72 h, declined over time",24 h
same,"efficacy, of the efficacy of TCDD, in vitro EROD-bioassay",CYP 1A1; rat hepatoma cells,77%
same,effect on cycle/ovulation,"[10]; 10 mg/kg/day, 9 consecutive days",shortened period of vaginal opening
same,effect on ovulation,[10]; [15],inhibited ovulation
same,vaginal opening,[10]; [15],irregular vaginal opening
same,direct or endocrine effect on the ovaries,"[10]; guinea pigs, conclusion of the experiment",no direct or endocrine effect on the ovaries
same,effect on cycle/ovulation,"[10]; two lowest dose groups (2.5, 5 mg/kg per day), 9 consecutive days from day 9 of cycle",no effect
same,mortality in anesthetized animals,"rats [11]; i.v. 3 mg/kg, pentobarbital anesthesia",one animal dying out of three
same,effect in anesthetized animals,"rats [11]; i.v. 5 mg/kg in acetone (1 ml/kg), pentobarbital 55 mg/kg",immediate respiratory arrest
same,fatalities,rats [11]; [16],no fatalities
same,shortening of the onset of anesthesia,rats [11]; [16],about 50%
same,breathing,"rats [11]; rats, p.o. administration of various doses during pentobarbital-induced anesthesia",breathed very shallow and in long intervals
same,LD50,[12],25 to 50 mg/kg
same,day of death,"[13]; adult female guinea pig, 10 mg/kg/day p.o. for 9 consecutive days",13 days
same,Result,"[13]; adult male guinea pig, animal 1, p.o. 25 mg/kg/d for 18 days",survived
same,Result,"[13]; adult male guinea pig, animal 2, p.o. l00 mg/kg/d for 8 days",died
same,Result,"[13]; adult male guinea pig, animal 3, p.o. 50, 10, 25, 50 mg/kg/d (dose-range finding) for 17 days",died
same,Result,"[13]; adult male guinea pigs, animals 4-6, p.o. 27.5, 44, 50, 57, 67, 75 mg/kg/d for 13 days",survived
same,body weight,"[13]; eleven guinea pigs, multiple p.o. doses 2.5 to 100 mg/kg/day",body weight loss
same,p.o. LD50 of TCPT relative to reported p.o. LD50 of TCDD,[13]; guinea pigs,"roughly 10,000 times"
same,autopsy finding,[13]; guinea pigs that died,loss of all adipose tissue
same,days of dosing until death,"[13]; guinea pigs, p.o. 25-50 mg/kg/day",8 to 11 days
same,dose for the acute lethal toxicity,"[13]; guinea pigs, p.o., daily dosing",25 to 50 mg/kg/day
same,difference in acute toxicity to TCDD,[13]; oral administration,10^−4 fold
same,peroral potency compared with TCDD (wasting syndrome),[13]; p.o. dosing,four orders of magnitude lower
same,tolerance,[13]; survivors of daily p.o. dosing,development of tolerance
same,set-point of bodyweight,[14]; all survivors,reduced set-point of bodyweight
same,bodyweight during the dosing period,"[14]; guinea pigs, 2.5, 5, 10 and 20 mg/kg/day for 9 consecutive days",decrease in bodyweight
same,time until weight gain resumed after cessation,"[14]; guinea pigs, after 9 days of dosing",1 to 2 days
same,reduction of set-point for bodyweight,"[14]; treated animal (20 mg/kg/day, 9 days), FIG. 2",66 grams
same,observable effects,guinea pig,no observable effect
